Legend:
Osteoclast = test: Effect on degradation of bovine bone by rabbit osteoclast; format: functional, cell-based; conditions: Oryctolagus cuniculus
[1] = target: Cathepsin (B and K) (Homo sapiens) (UniProt P43235+P07858); test: Selectivity for cathepsin B over cathepsin K; format: protein assay
[2] = Clearance in rat at 0.5 mg/kg, iv; format: ADME, organism-based; set-up: dose 0.5 mg/kg, route intravenous; conditions: in vivo
[3] = Volume of distribution in rat at 0.5 mg/kg, iv; format: ADME, organism-based; set-up: dose 0.5 mg/kg, route intravenous; conditions: in vivo, read-out: Vss
Cathepsin K = target: T1, Cathepsin K (Homo sapiens, UniProt P43235); test: Inhibition of human cathepsin K
T1 sequence (P43235 whole entry): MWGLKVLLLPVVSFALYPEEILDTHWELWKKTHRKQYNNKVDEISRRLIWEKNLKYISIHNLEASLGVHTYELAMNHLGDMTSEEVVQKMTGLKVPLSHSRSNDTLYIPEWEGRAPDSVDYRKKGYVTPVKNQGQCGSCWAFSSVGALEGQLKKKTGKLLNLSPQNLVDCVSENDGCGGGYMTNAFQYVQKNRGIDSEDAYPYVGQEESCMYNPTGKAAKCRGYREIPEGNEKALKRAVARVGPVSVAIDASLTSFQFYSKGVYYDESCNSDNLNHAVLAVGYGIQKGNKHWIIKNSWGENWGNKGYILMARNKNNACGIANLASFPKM

[4] = target: Cathepsin (S and K) (Homo sapiens) (UniProt P25774+P43235); test: Selectivity for cathepsin S over cathepsin K; format: protein assay
Procathepsin L = Procathepsin L (Homo sapiens, UniProt P07711); test: Inhibition of human cathepsin L
Sequence of Procathepsin L (P07711 whole entry): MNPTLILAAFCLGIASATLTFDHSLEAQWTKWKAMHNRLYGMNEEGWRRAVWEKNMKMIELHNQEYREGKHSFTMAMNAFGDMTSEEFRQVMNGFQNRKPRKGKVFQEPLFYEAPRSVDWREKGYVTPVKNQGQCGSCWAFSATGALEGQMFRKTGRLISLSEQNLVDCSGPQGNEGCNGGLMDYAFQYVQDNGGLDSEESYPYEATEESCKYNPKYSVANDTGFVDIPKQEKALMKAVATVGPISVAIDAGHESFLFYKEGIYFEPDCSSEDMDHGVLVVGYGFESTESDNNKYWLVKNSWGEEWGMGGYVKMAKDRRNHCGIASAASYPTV

[5] = target: Cathepsin (L and K) (Homo sapiens) (UniProt P43235+P07711); test: Selectivity for cathepsin L over cathepsin K; format: protein assay
[6] = Mean residence time in rat at 0.5 mg/kg, iv; format: ADME, organism-based; set-up: dose 0.5 mg/kg, route intravenous; conditions: in vivo
Cathepsin S = Cathepsin S (Homo sapiens, UniProt P25774); test: Inhibition of human cathepsin S
Sequence of Cathepsin S (P25774 whole entry): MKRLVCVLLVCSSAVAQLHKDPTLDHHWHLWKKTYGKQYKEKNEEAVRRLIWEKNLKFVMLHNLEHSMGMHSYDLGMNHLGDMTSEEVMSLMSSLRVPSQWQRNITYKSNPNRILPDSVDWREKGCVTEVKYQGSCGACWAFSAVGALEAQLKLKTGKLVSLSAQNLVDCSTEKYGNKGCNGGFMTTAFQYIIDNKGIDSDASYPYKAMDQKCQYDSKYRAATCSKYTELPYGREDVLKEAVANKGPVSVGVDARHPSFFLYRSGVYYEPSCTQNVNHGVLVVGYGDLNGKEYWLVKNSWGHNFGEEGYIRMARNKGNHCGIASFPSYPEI

Cathepsin B = Cathepsin B (Homo sapiens, UniProt P07858); test: Inhibition of human cathepsin B
Rattus norvegicus [7] = test: Half life in rat at 10 mg/kg, po; format: ADME, organism-based; set-up: dose 10 mg/kg, route oral; conditions: in vivo
Rattus norvegicus [8] = test: Tmax in rat at 10 mg/kg, po; format: ADME, organism-based; set-up: dose 10 mg/kg, route oral; conditions: in vivo
Rattus norvegicus [9] = test: Cmax in rat at 10 mg/kg, po; format: ADME, organism-based; set-up: dose 10 mg/kg, route oral; conditions: in vivo
[10] = Oral bioavailability in rat at 10 mg/kg, po; format: ADME, organism-based; conditions: in vivo
Rattus norvegicus [11] = test: AUC in rat at 10 mg/kg, po; format: ADME, organism-based, Plasma; set-up: dose 10 mg/kg, route oral; conditions: in vivo

CC(C)CC(C(=O)NCC#N)c1cccc(-c2ccc(-c3csc(N4CCNCC4)n3)cc2)c1 (racemic)
IC50 (Osteoclast): 12 nM | Selectivity ratio [1]: 3430 | clearance [2]: 114 mL/min/kg | Vd [3]: 12 L/kg | Ki (Cathepsin K): 3.5 nM | Selectivity ratio [4]: 2710 | Ki (Procathepsin L): 2500 nM | Selectivity ratio [5]: 714 | MRT [6]: 1.77 h | Ki (Cathepsin S): 9500 nM | Ki (Cathepsin B): 12000 nM

CC(C)C[C@@H](C(=O)NCC#N)c1cccc(-c2cccc(-c3csc(N4CCN(C(C)(C)C)CC4)n3)c2)c1
IC50 (Osteoclast): 28 nM | Selectivity ratio [1]: 28500 | clearance [2]: 60 mL/min/kg | Vd [3]: 6.6 L/kg | Ki (Cathepsin K): 1.3 nM | Selectivity ratio [4]: 4310 | Ki (Procathepsin L): 360 nM | Selectivity ratio [5]: 276 | MRT [6]: 1.82 h | Ki (Cathepsin S): 5600 nM | Ki (Cathepsin B): 37000 nM

CC(C)C[C@@H](C(=O)NCC#N)c1cccc(-c2cccc(-c3csc(N4CCC(N(C)C)C4)n3)c2)c1 (some centres undefined)
IC50 (Osteoclast): 172 nM | Selectivity ratio [1]: 17000 | Ki (Cathepsin K): 3 nM | Selectivity ratio [4]: 1200 | Ki (Procathepsin L): 540 nM | Selectivity ratio [5]: 180 | Ki (Cathepsin S): 3600 nM | Ki (Cathepsin B): 51000 nM

CC(C)C[C@@H](C(=O)NCC#N)c1cccc(-c2cccc(-c3csc(CN4CCNCC4)n3)c2)c1
IC50 (Osteoclast): 43 nM | Selectivity ratio [1]: 10600 | clearance [2]: 65 mL/min/kg | Vd [3]: 9.1 L/kg | Ki (Cathepsin K): 4.8 nM | Selectivity ratio [4]: 1540 | Ki (Procathepsin L): 680 nM | Selectivity ratio [5]: 141 | MRT [6]: 2.33 h | Ki (Cathepsin S): 7400 nM | Ki (Cathepsin B): 51000 nM

CC(C)C[C@@H](C(=O)NCC#N)c1cccc(-c2ccc(N3CCNCC3)cc2)c1
IC50 (Osteoclast): 95 nM | Selectivity ratio [1]: 481 | clearance [2]: 98 mL/min/kg | Vd [3]: 14.8 L/kg | Ki (Cathepsin K): 8 nM | Selectivity ratio [4]: 212 | Ki (Procathepsin L): 4640 nM | Selectivity ratio [5]: 580 | MRT [6]: 2.58 h | Ki (Cathepsin S): 1690 nM | Ki (Cathepsin B): 3840 nM

CC(C)CC(C(=O)NCC#N)c1cccc(-c2cccc(-c3csc(N4CCNCC4)n3)c2)c1 (racemic)
IC50 (Osteoclast): 349 nM | T1/2 (Rattus norvegicus [7]): 3.9 h | Selectivity ratio [1]: 22500 | Tmax (Rattus norvegicus [8]): 3.33 h | clearance [2]: 25 mL/min/kg | Vd [3]: 4.3 L/kg | Ki (Cathepsin K): 0.8 nM | Cmax (Rattus norvegicus [9]): 1100 nM | Selectivity ratio [4]: 7000 | Ki (Procathepsin L): 190 nM | Selectivity ratio [5]: 237 | MRT [6]: 2.93 h | Ki (Cathepsin S): 5600 nM | Ki (Cathepsin B): 18000 nM | bioavailability [10]: 85% | AUC (Rattus norvegicus [11]): 560 µM·min

CC(C)CC(C(=O)NCC#N)c1cccc(-c2cccc(-c3csc(N4CCN(C)CC4)n3)c2)c1 (racemic)
IC50 (Osteoclast): 59 nM | Selectivity ratio [1]: 16900 | clearance [2]: 32 mL/min/kg | Vd [3]: 1.7 L/kg | Ki (Cathepsin K): 1.3 nM | Selectivity ratio [4]: 1380 | Ki (Procathepsin L): 390 nM | Selectivity ratio [5]: 300 | MRT [6]: 0.9 h | Ki (Cathepsin S): 1800 nM | Ki (Cathepsin B): 22000 nM
